In patent US20240269073A1, “CO-AMORPHOUS FORMS FOR USE IN CANCER THERAPY” (Zerion Pharma APS, priority 2021, published 2024):
Values belong to the molecule of their own block, whether it stands above or below them.

Assays:
high-risk mCSPC = conditions: cited from earlier work
[1] = cited from earlier work
prostate cancer = conditions: cited from earlier work
[2] = equivalent glucocorticoid dose; cited from earlier work
[3] = system: plasma proteins, primarily albumin; conditions: cited from earlier work
[4] = cited from earlier work; remark: listed apart in the source
[5] = Chemical compatibility of Olaparib with prednisolone on storage; assay type: physicochemical; conditions: Olaparib and Prednisolone combined, 1 month in sealed containers at 40° C. and 75% RH
Protocol: An experiment was carried out to determine whether Olaparib is chemically compatible with prednisolone, both alone and in the co-amorphous form.

[6] = system: prostate cancer with mutations in DNA repair genes; conditions: cited from earlier work

Structure (SMILES): CC(=O)O[C@H]1CC[C@@]2(C)C(=CC[C@@H]3[C@@H]2CC[C@]2(C)C(c4cccnc4)=CC[C@@H]32)C1 [Abiraterone acetate, [(3S,8R,9S,10R,13S,14S)-10,13-dimethyl-17-pyridin-3-yl-2,3,4,7,8,9,11,12,14,15-decahydro-1H-cyclopenta[a]phenanthren-3-yl] acetate]
mOS (high-risk mCSPC; 1000 mg daily with prednisone 5 mg twice daily and GnRH agonist/antagonist): 53.3 months
mPFS (high-risk mCSPC; 1000 mg daily with prednisone and GnRH agonist/antagonist): 33.0 months
HR for mPFS vs placebo group (high-risk mCSPC; 95% CI, 0.39-0.55, P<0.001): 0.47
HR for mOS vs placebo arm (high-risk mCSPC; P<0.001): 0.62
water solubility [1]: less than 1 mg/mL
HR for survival vs ADT-alone group (prostate cancer; P<0.001): 0.63
3-year survival rate (prostate cancer; in vivo): 83%

Structure (SMILES): CC(=O)OCC(=O)[C@@]1(O)CC[C@H]2[C@@H]3CCC4=CC(=O)CC[C@]4(C)[C@H]3C(=O)C[C@@]21C [Cortisone acetate]
Equivalent amount [2]: 25 mg

Structure (SMILES): CNC(=O)c1ccc(N2C(=S)N(c3ccc(C#N)c(C(F)(F)F)c3)C(=O)C2(C)C)cc1F [Enzalutamide, 4-[3-[4-cyano-3-(trifluoromethyl)phenyl]-5,5-dimethyl-4-oxo-2-sulfanylideneimidazolidin-1-yl]-2-fluoro-N-methylbenzamide]
water solubility [1]: less than 1 mg/mL

Structure (SMILES): C[C@]12CCC(=O)C=C1CC[C@@H]1[C@@H]2[C@@H](O)C[C@@]2(C)[C@H]1CC[C@]2(O)C(=O)CO [Hydrocortisone]
Equivalent amount [2]: 20 mg

Structure (SMILES): CC1(C)C(=O)N(c2ccc(C#N)c(C(F)(F)F)c2)C(=S)N1c1ccc(C(N)=O)c(F)c1 [N-desmethyl enzalutamide]
bound to plasma proteins [3]: 95%

Degradation on combined storage [5]: No degradations
Structure (SMILES): O=C(c1cc(Cc2n[nH]c(=O)c3ccccc23)ccc1F)N1CCN(C(=O)C2CC2)CC1 [Olaparib]
water solubility [1]: about 0.06 mg/mL
administered dose recovered ([4]; after 7 days, total): approximately 86%
administered dose found in urine ([4]; after 7 days): 44%
administered dose obtained in feces ([4]; after 7 days): 42%
AUC ([4]; after a dose of 200 mg): 25800 ng·h/mL
increase of AUC with constant administration ([4]; constant administration): 26%
time to peak concentration ([4]; following oral administration): 1 to 3 h
effect of high-fat diet on peak concentration ([4]; high-fat diet): does not have an effect in the peak concentration
effect of high-fat diet on tmax ([4]; high-fat diet): can decrease the tmax
unchanged form, share of the circulating dose ([4]; in vivo): 70%
median time lived without evidence of cancer getting worse ([6]; cohort A (BRCA1, BRCA2 or ATM alterations)): 7.4 months
improvement of survival versus control ([6]; cohort A, versus abiraterone or enzalutamide): more than 4 months
overall survival ([6]; cohort A): 19.1 months
tumor response (tumors shrink) ([6]; in vivo): 33%

Structure (SMILES): C[C@@H]1C[C@H]2[C@@H]3C[C@H](F)C4=CC(=O)C=C[C@]4(C)[C@H]3[C@@H](O)C[C@]2(C)[C@@]1(O)C(=O)CO [Paramethasone]
Equivalent amount [2]: 2 mg

Degradation on combined storage [5]: No degradations
Structure (SMILES): C[C@]12C=CC(=O)C=C1CC[C@@H]1[C@@H]2[C@@H](O)C[C@@]2(C)[C@H]1CC[C@]2(O)C(=O)CO [Prednisolone]
Equivalent amount [2]: 5 mg

Structure (SMILES): C[C@]12C=CC(=O)C=C1CC[C@H]1[C@@H]3C[C@@H](O)[C@](O)(C(=O)CO)[C@@]3(C)C[C@H](O)[C@@]12F [Triamcinolone]
Equivalent amount [2]: 4 mg
